Square brackets hold non-standard residues; d marks the D form. Peptide text beside a SMILES is read from it. N(1-naphthylmethyl)Gly = O=C(O)CNCc1cccc2ccccc12; 1Nal = N[C@@H](Cc1cccc2ccccc12)C(=O)O; 2Nal = N[C@@H](Cc1ccc2ccccc2c1)C(=O)O; d1Nal = N[C@H](Cc1cccc2ccccc12)C(=O)O; d2Nal = N[C@H](Cc1ccc2ccccc2c1)C(=O)O; Nle = CCCC[C@H](N)C(=O)O; Nphe = O=C(O)CNCc1ccccc1; NBuGly = CCCCNCC(=O)O; Nlys = NCCCCNCC(=O)O
Columns and labels:
MSSA (ATCC 29213) = assay type: cell-based, Staphylococcus aureus; conditions: ATCC 29213, 18 h
Method: (§1) Activity of B1 was tested on 50P. aeruginosa isolates and 57S. pseudintermedius isolates (including 7 MRSP) that had been isolated in the diagnostic laboratory Sund Vet Diagnostik (University of Copenhagen) from various infections in dogs between 2009 and 2011. Representative MRSP (C22963), MSSA, and P. aeruginosa (26314) were used for testing the first set of B1 analogues.
(§2) MIC determination was performed by broth microdilution according to the Clinical and Laboratory Standard Institute (CLSI, M31-A3, 2008)[62]. In brief, each bacterial strain was diluted to concentration of 5 × 10^5 CFU/mL in Mueller Hinton broth II (MHB II) media (Oxoid) and added to a two-fold serial dilution of peptides and peptide-peptoid hybrids concentrations ranging from 1 to 64 µg/ml in 96-well plates (Nunc Internationals, Rochester, NY). The MICs were determined as a lowest concentration showing no visible growth after incubation for 18 hours at 37 °C. Experiments were performed in triplicates on two different days.

P. aeruginosa (26314) = assay type: cell-based, Pseudomonas aeruginosa; conditions: 26314, 18 h
Method: Activity of B1 was tested on […]. aeruginosa isolates and […]. pseudintermedius isolates (including 7 MRSP) that had been isolated in the diagnostic laboratory Sund Vet Diagnostik (University of Copenhagen) from various infections in dogs between 2009 and 2011. Representative […], and P. aeruginosa (26314) were used for testing the first set of B1 analogues. For antibacterial spectrum the following strains were used: Corynebacterium auriscanis, 31551, (54 C6, dog, ear, 2013); Enterococcus faecalis, 27404, (17 C7, dog, wound, 2011); Enterococcus faecium, 30951, (24 C1, dog, ear, 2013); Streptococcus canis, 26740-1, (14 H1, dog, ear, 2010); Staphylococcus aureus, 27266, (16 G9, dog, skin, 2010); Staphylococcus aureus, 27266, (16 G9, dog, skin, 2010); Staphylococcus pseudintermedius 22963, (3 B9, dog, 2007). Acinetobacter baumannii, 27065, (16 D1, dog, wound, 2010); E. coli, 30235, 23 A6, dog, wound, 2012; Klebsiella pneumoniae, 26233, (11 H5, dog, wound, 2010); Pasteurella canis, 31096, (24 C8, dog, skin, 2013); Proteus mirabilis, 25178, (9 A4, dog, ear, 2009); Pseudomonas aeruginosa 26314, 12 C5, dog, urine, 2010). MIC determination was performed by broth microdilution according to the Clinical and Laboratory Standard Institute (CLSI, […]-A3, 2008)[62]. In brief, each bacterial strain was diluted to concentration of 5 × 10^5 CFU/mL in Mueller Hinton broth II (MHB II) media (Oxoid) and added to a two-fold serial dilution of peptides and peptide-peptoid hybrids concentrations ranging from 1 to 64 μg/ml in 96-well plates (Nunc Internationals, Rochester, NY). The MICs were determined as a lowest concentration showing no visible growth after incubation for 18 hours at 37 °C. Experiments were performed in triplicates on two different days.

human red blood cells = assay type: cell-based; conditions: for EC50: red cells of human, 1 h
Method: (§3) Briefly, two-fold serial dilutions (2.35 to 150 μM) of compounds in phosphate buffer saline (PBS) were mixed with equal volume of 0.5% v/v suspension of fresh human red blood cells (RBC) in the same buffer. After 1 h incubation at 37 °C, plates were centrifuged and aliquots of the supernatants were transferred to clear 96-well plates. Absorbance at 414 nm was measured and normalized using a negative (PBS, 0%) and a positive (melittin, 100%) control. The EC10 and EC50 are concentrations at which 10% and 50% of RBC were lysed, respectively, as interpolated graphically by the y-axis intersection of the plotted data.

[1] = assay type: cell-based, human; conditions: human
Method: as §3

MRSP C22963 = assay type: cell-based, Staphylococcus pseudintermedius; conditions: 18 h
Method: as §1, §2

## CC(C)C[C@@H](NC(=O)[C@H](CCCCN)NC(=O)[C@@H](N)CCCCN)C(=O)N[C@@H](CCCCN)C(=O)N[C@H](Cc1cccc2ccccc12)C(=O)N[C@H](Cc1ccccc1)C(=O)N[C@H](Cc1cccc2ccccc12)C(N)=O [Compound 14, Lys-Lys-leu-Lys-(1-Nal)ala-phe-(1-Nal)ala] (H-KK[dL]K[d1Nal][dF][d1Nal]-NH2; N-terminus assumed)
MSSA (ATCC 29213)
  Minimum Inhibitory Concentration MSSA (ATCC 29213): 16 µg/mL
P. aeruginosa (26314)
  Minimum Inhibitory Concentration P. aeruginosa (26314): 16 to 32 µg/mL
Human red blood cells
  Haemolysis EC10: 28 µM
  EC50: 128 µM
[1]
  hemolysis at 1 h, 150 µM: 58%
MRSP C22963
  Minimum Inhibitory Concentration MRSP C22963: 4 to 8 µg/mL

## CC(C)C[C@H](NC(=O)[C@H](CCCCN)NC(=O)[C@@H](N)CCCCN)C(=O)N[C@@H](CCCCN)C(=O)N[C@@H](Cc1ccc2ccccc2c1)C(=O)N[C@@H](Cc1ccccc1)C(=O)N[C@@H](Cc1ccc2ccccc2c1)C(N)=O [Compound 8, Lys-Lys-Leu-Lys-(2-Nal)Ala-Phe-(2-Nal)Ala] (H-KKLK[2Nal]F[2Nal]-NH2; N-terminus assumed)
MSSA (ATCC 29213)
  Minimum Inhibitory Concentration MSSA (ATCC 29213): 16 µg/mL
P. aeruginosa (26314)
  Minimum Inhibitory Concentration P. aeruginosa (26314): 32 µg/mL
Human red blood cells
  Haemolysis EC10: 56 µM
[1]
  hemolysis at 1 h, 150 µM: 34%
MRSP C22963
  Minimum Inhibitory Concentration MRSP C22963: 8 µg/mL

## CC(C)C[C@H](NC(=O)[C@H](CCCCN)NC(=O)[C@H](CCCCN)NC(=O)[C@@H](N)CCCCN)C(=O)N[C@@H](Cc1cccc2ccccc12)C(=O)N[C@@H](Cc1ccccc1)C(=O)N[C@@H](Cc1cccc2ccccc12)C(N)=O [Compound 7, Lys-Lys-Lys-Leu-(1-Nal)Ala-Phe-(1-Nal)Ala] (H-KKKL[1Nal]F[1Nal]-NH2; N-terminus assumed)
MSSA (ATCC 29213)
  Minimum Inhibitory Concentration MSSA (ATCC 29213): 16 µg/mL
P. aeruginosa (26314)
  Minimum Inhibitory Concentration P. aeruginosa (26314): 16 µg/mL
Human red blood cells
  Haemolysis EC10: 8 µM
  EC50: 140 µM
[1]
  hemolysis at 1 h, 150 µM: 55%
MRSP C22963
  Minimum Inhibitory Concentration MRSP C22963: 8 µg/mL

## CC(C)C[C@@H](NC(=O)[C@H](CCCCN)NC(=O)[C@@H](N)CCCCN)C(=O)N[C@@H](CCCCN)C(=O)N[C@H](Cc1ccc2ccccc2c1)C(=O)N[C@H](Cc1ccccc1)C(=O)N[C@H](Cc1ccc2ccccc2c1)C(N)=O [Compound 17, Lys-Lys-leu-Lys-(2-Nal)ala-phe-(2-Nal)ala] (H-KK[dL]K[d2Nal][dF][d2Nal]-NH2; N-terminus assumed)
MSSA (ATCC 29213)
  Minimum Inhibitory Concentration MSSA (ATCC 29213): 16 µg/mL
P. aeruginosa (26314)
  Minimum Inhibitory Concentration P. aeruginosa (26314): 32 µg/mL
Human red blood cells
  Haemolysis EC10: 8 µM
[1]
  hemolysis at 1 h, 150 µM: 40%
MRSP C22963
  Minimum Inhibitory Concentration MRSP C22963: 8 µg/mL

## CCCC[C@H](NC(=O)[C@H](CCCCN)NC(=O)[C@H](CCCCN)NC(=O)[C@@H](N)CCCCN)C(=O)N[C@@H](Cc1cccc2ccccc12)C(=O)N[C@@H](Cc1ccccc1)C(=O)N[C@@H](Cc1cccc2ccccc12)C(N)=O [Compound 24, Lys-Lys-Lys-Nle-(1-Nal)Ala-Phe-(1-Nal)Ala] (H-KKK[Nle][1Nal]F[1Nal]-NH2; N-terminus assumed)
MSSA (ATCC 29213)
  Minimum Inhibitory Concentration MSSA (ATCC 29213): >64 µg/mL
P. aeruginosa (26314)
  Minimum Inhibitory Concentration P. aeruginosa (26314): 16 µg/mL
Human red blood cells
  Haemolysis EC10: 3 µM
  EC50: 41 µM
[1]
  hemolysis at 1 h, 150 µM: 60%
MRSP C22963
  Minimum Inhibitory Concentration MRSP C22963: 16 to 32 µg/mL

## CC(C)C[C@H](NC(=O)[C@H](CCCCN)NC(=O)[C@H](CCCCN)NC(=O)[C@@H](N)CCCCN)C(=O)N[C@@H](Cc1ccc2ccccc2c1)C(=O)N[C@@H](Cc1ccccc1)C(=O)N[C@@H](Cc1ccc2ccccc2c1)C(N)=O [Compound 9, Lys-Lys-Lys-Leu-(2-Nal)Ala-Phe-(2-Nal)Ala] (H-KKKL[2Nal]F[2Nal]-NH2; N-terminus assumed)
MSSA (ATCC 29213)
  Minimum Inhibitory Concentration MSSA (ATCC 29213): 16 µg/mL
P. aeruginosa (26314)
  Minimum Inhibitory Concentration P. aeruginosa (26314): 16 µg/mL
Human red blood cells
  Haemolysis EC10: 46 µM
[1]
  hemolysis at 1 h, 150 µM: 39%
MRSP C22963
  Minimum Inhibitory Concentration MRSP C22963: 8 µg/mL

## CC(C)C[C@H](NC(=O)CN(CCCCN)C(=O)CN(CCCCN)C(=O)CNCCCCN)C(=O)N[C@@H](Cc1ccc2ccccc2c1)C(=O)N[C@@H](Cc1ccccc1)C(=O)N[C@@H](Cc1ccc2ccccc2c1)C(N)=O [Compound 29, NLys-NLys-NLys-Leu-(2-Nal)Ala-Phe-(2-Nal)Ala] (H-[Nlys][Nlys][Nlys]L[2Nal]F[2Nal]-NH2; N-terminus assumed)
MSSA (ATCC 29213)
  Minimum Inhibitory Concentration MSSA (ATCC 29213): 16 to 32 µg/mL
P. aeruginosa (26314)
  Minimum Inhibitory Concentration P. aeruginosa (26314): 32 µg/mL
Human red blood cells
  Haemolysis EC10: 9 µM
[1]
  hemolysis at 1 h, 150 µM: 46%
MRSP C22963
  Minimum Inhibitory Concentration MRSP C22963: 4 to 8 µg/mL

## CC(C)C[C@@H](NC(=O)[C@H](CCCCN)NC(=O)[C@H](CCCCN)NC(=O)[C@@H](N)CCCCN)C(=O)N[C@H](Cc1cccc2ccccc12)C(=O)N[C@H](Cc1ccccc1)C(=O)N[C@H](Cc1cccc2ccccc12)C(N)=O [Compound 15, Lys-Lys-Lys-leu-(1-Nal)ala-phe-(1-Nal)ala] (H-KKK[dL][d1Nal][dF][d1Nal]-NH2; N-terminus assumed)
MSSA (ATCC 29213)
  Minimum Inhibitory Concentration MSSA (ATCC 29213): 8 µg/mL
P. aeruginosa (26314)
  Minimum Inhibitory Concentration P. aeruginosa (26314): 8 µg/mL
Human red blood cells
  Haemolysis EC10: 8 µM
  EC50: 40 µM
[1]
  hemolysis at 1 h, 150 µM: 88%
MRSP C22963
  Minimum Inhibitory Concentration MRSP C22963: 2 µg/mL

## CC(C)C[C@@H](NC(=O)[C@@H](Cc1ccc2ccccc2c1)NC(=O)[C@@H](Cc1ccccc1)NC(=O)[C@H](N)Cc1ccc2ccccc2c1)C(=O)N[C@@H](CCCCN)C(=O)N[C@@H](CCCCN)C(=O)N[C@@H](CCCCN)C(N)=O [Compound 19, (2-Nal)ala-phe-(2-Nal)ala-leu-Lys-Lys-Lys] (H-[d2Nal][dF][d2Nal][dL]KKK-NH2; N-terminus assumed)
MSSA (ATCC 29213)
  Minimum Inhibitory Concentration MSSA (ATCC 29213): 32 µg/mL
P. aeruginosa (26314)
  Minimum Inhibitory Concentration P. aeruginosa (26314): >64 µg/mL
[1]
  hemolysis at 1 h, 150 µM: < 8%
MRSP C22963
  Minimum Inhibitory Concentration MRSP C22963: 16 µg/mL

## CCCCN(CC(=O)N[C@@H](CCCCN)C(=O)N(CC(=O)N(CC(=O)N(CC(N)=O)Cc1cccc2ccccc12)Cc1ccccc1)Cc1cccc2ccccc12)C(=O)[C@H](CCCCN)NC(=O)[C@@H](N)CCCCN [Compound 2, Lys-Lys-(NBu)Gly-Lys-(N1-Nal)Gly-(NPhe)Gly-(N1-Nal)Gly] (H-KK[NBuGly]K[N(1-naphthylmethyl)Gly][Nphe][N(1-naphthylmethyl)Gly]-NH2; N-terminus assumed)
MSSA (ATCC 29213)
  Minimum Inhibitory Concentration MSSA (ATCC 29213): 8 to 16 µg/mL
P. aeruginosa (26314)
  Minimum Inhibitory Concentration P. aeruginosa (26314): 32 µg/mL
[1]
  hemolysis at 1 h, 150 µM: < 8%
MRSP C22963
  Minimum Inhibitory Concentration MRSP C22963: 4 µg/mL

— article PMC6403271, “Characterization, mechanism of action and optimization of activity of a novel peptide-peptoid hybrid against bacterial pathogens involved in canine skin infections” (Scientific Reports, 2019)
